According to US5747461A, “Synergistic administration of cyclosporine and fructose diphosphate” (priority 1994, dated 1998):
Values joined by “and” are separate entries in the source; they are usually repeats but may differ in a detail not shown here. Equal entries are not always repeated.

What was measured:
[1] = test system: rat cardiac allograft; assay: Intra-abdominal heart transplantation, series 2 (FDP alone and with cyclosporine); type: in vivo; conditions: FDP pre and perioperative only (350 mg/kg IV, infusion 10 mg/kg IV for 90 min); n=5
Method: In a second series of in vivo tests, FDP alone and in conjunction with cyclosporine was tested for its ability to suppress allograft rejection and prolong survival of the transplanted heart. […] Therefore, these tests evaluated FDP in conjunction with sub-optimal doses of CSA.
In these tests, the same procedure as described above was used to transplant hearts into the abdomens of recipient animals. Unlike the earlier tests, the animals also received prophylactic antibiotic treatment following surgery, as well as daily application of Bacitracin ointment of the site of the venous catheter.
The surgical technique used in these tests was exactly the same as described in Example 2, except the animals in this series of tests received prophylactic antibiotic treatment following surgery, and daily application of Bacitracin ointment of the site of the venous catheter.
The animals were divided into the following 6 groups: […]

[2] = test system: cardiac allograft (Wistar-Furth donor heart in Lewis rat); assay: Intra-abdominal heart transplantation, series 1 (graft survival, rejection grade); type: in vivo
Excerpt: Since unwanted T cell stimulation is known to be a primary factor in causing allograft rejection, the results of the in vitro studies discussed above, showing that FDP can suppress T cell stimulation, led to a series of in vivo tests using heart transplantations in rats. These tests are described in detail in Example 2. Briefly, laboratory rats from a strain known as Lewis rats were used as recipients, while rats from a different strain known as Wistar-Furth were used as heart donors.
In the recipient animals, the native heart was not cut out and replaced by a new heart. […] This model provides a good test to determine whether the body will reject the foreign tissue, yet it avoids the extraordinary difficulties that would arise if the animal's native heart were cut out.
In the first round of tests, four treatment groups and one control group were established. The control group received no FDP. The four treatment groups were injected intravenously with 350 mg/kg of FDP 15 minutes prior to surgery, at a dosage of 350 mg/kg (i.e., 350 mg of FDP per kilogram of body weight). The treatment animals also received a 90 minute infusion of FDP during the operation, at a rate of 10 mg/kg/min. In addition to these "perioperative FDP" injections, the four treatment groups also received:
The animals were examined daily for viability. […] When the transplanted heart reached a level of non-viability, a lethal dose of pentobarbital was given, and the heart was removed, examined microscopically, and graded for rejection using the Stanford grading scale.
If a transplanted heart stopped beating prior to three days postoperatively, that animal was dropped from the study. Rats that died within five days of the operation for unknown causes were also dropped from the study. These deaths were believed to be secondary to sepsis, rather than caused by tissue rejection. Also, one animal in Group 1 died from a suture fracture; this animal was also dropped from the study.
Male Wistar-Furth rats (WF;RT-1^u) and male Lewis rats (Lew;RT-1^1)were obtained from Harlan Sprague-Dawley Animal Laboratories. Lewis rats weighing (200-224 gm) were used as recipients. WF rats weighing (200-224 gm) were used as donors.
The Lewis rats were anesthetized with a mixture of ketamine (100 mg/kg) and xylocaine (5 mg/kg) by intraperitoneal injection (IP) 1 to 2 days prior to transplantation. At this time, PE-90 tubing was placed in the internal jugular vein and brought out through the posterior aspect of the neck. The rats were placed in individual cages to prevent dislodging of the catheter. No limits were placed on water or rat chow.
The transplantation procedure was a modified version of Ono and Lindsey's microvascular technique for intra-abdominal transplantation. WF rats were anesthetized with pentobarbital (50 mg/kg). The chest and abdomen were shaved and prepped with betadine and then placed on a thermostatically controlled operating platform. […] After three minutes, the sternum and anterior chest were separated from the diaphragm and lateral ribs with heavy scissors. The chest cavity was opened and the IVC was ligated using a 5-0 silk ligature. The aorta was then dissected out and cross clamped at the level of the innominate artery. Three cc of cold cardioplegia solution (4° C.) was injected into the aortic root with a 25 gauge needle. The aorta was divided below the clamp. The pulmonary artery was dissected free and divided at its bifurcation. […] The heart was then removed and placed in iced saline with heparin (2 units/ml).
Lewis rats were then anesthetized in a similar fashion. After shaving and prepping the abdomen, a mid-line incision was made. The IVC and the infrarenal aorta were mobilized together. A curved bulldog was then used to cross clamp the vessels. The anastomosis was sewn between the […] and IVC using a 9-0 Ethicon microsurgical suture. The aorta-aorta anastomosis was then performed in a similar end-side fashion. […]

[3] = test system: ischemically stored kidneys; assay: Oxygen consumption after hypothermic ischemic storage, kidney; design: species or system rat; conditions: kidneys n=11; FDP 1 mg/ml in storage solution; 16 to 20 hours storage
Method: Sprague Dawley rats (150-180 gm/body weight) were anesthetized with Ketamine 35 mg/kg. The liver, kidney and heart were excised and placed in 50 ml of a standard cardioplegia solution sold under the trademark ISOLYTE (which contained Na^+ -41 mEq/L, K^+ -16 mEq/L, Ca^++ -5 mEq/L, Mg^++ 3 mEq/L, Cl^- -40 mEq/L, acetate 24 mEq/L with 5% Dextrose), precooled to 4° C. To half of the storage containers, 1 mg/ml of 10% FDP was added; to the rest of the containers, a similar amount of glucose was added. The containers were placed on ice in a refrigerator. After storage for 16 to 20 hours, the organs were weighed and placed in a metabolic chamber for determination of oxygen consumption,using a Clark polarographic electrode. The total volume of the chamber was 10 ml and the composition of the medium was 8 ml phosphate buffered saline (PBS Dulbecco, Mg^++ and Ca^++ free) and 2 cc of Dextrose at a temperature of 36°±0.2° C. The organ was placed in the chamber and 100% oxygen was bubbled for 45 sec. The partial pressure of the dissolved oxygen was usually 480-560 mm Hg. Then the chamber was sealed hermetically, and O2 consumption by the organ was recorded on a strip chart recorder at a speed of 1 cm/min. Initial and final PO2 levels of medium in the chamber were measured on a Radiometer Blood Gas Analyzer Model ABL-4.

[4] = Group 1 perioperative FDP, Stanford grading scale

Compound: O=C(COP(=O)(O)O)[C@@H](O)[C@H](O)[C@H](O)COP(=O)(O)O [FDP, fructose-1,6-diphosphate]
- MST ± SEM (cardiac allograft survival) [1]: 11.4 Days and 11.4 ± 0.74 Days
- Mean Survival Time MST ± SE (graft) ([2]; Group 1: perioperative FDP (350 mg/kg IV + 10 mg/kg/min 90 min), no supplemental injections): 13.5 days and 13.5 ± 1.4101 days
- Rejection Grades: number of hearts graded Moderate [2, 4]: 1
- Rejection Grades: number of hearts graded Severe/Advanced [2, 4]: 8
- Rejection Grades: number of hearts graded Mild ([2]; Group 1 perioperative FDP, Stanford grading scale, N 11, 1 heart not evaluated): 1
- Mean Survival Time MST ± SE (graft) ([2]; Group 2: perioperative FDP + 350 mg/kg every 12 hours (bid), 350 mg/kg): 8.9 days and 8.9 ± 0.5154 days
- Rejection Grades: number of hearts graded Mild ([2]; Group 2 FDP bid, N 8): 1
- Rejection Grades: number of hearts graded Moderate ([2]; Group 2 FDP bid, N 8): 1
- Rejection Grades: number of hearts graded Severe/Advanced ([2]; Group 2 FDP bid, N 8): 6
- Mean Survival Time MST ± SE (graft) ([2]; Group 3: perioperative FDP + 350 mg/kg every 8 hours (tid), 350 mg/kg): 10 days and 10.0 ± 0.5345 days
- Rejection Grades: number of hearts graded Moderate ([2]; Group 3 FDP tid, N 8): 1
- Rejection Grades: number of hearts graded Severe/Advanced ([2]; Group 3 FDP tid, N 8): 7
- Mean Survival Time MST ± SE (graft) ([2]; Group 4: perioperative FDP + 350 mg/kg every 6 hours (qid), 350 mg/kg): 9.6 days and 9.4 ± 0.8004 days
- Rejection Grades: number of hearts graded Severe/Advanced ([2]; Group 4 FDP qid, N 8): 8
- rejection grades (span in the group) ([2]; Group I perioperative FDP, Stanford grading scale): mild to severe/advanced
- rejection grades (span in the group) ([2]; Group II FDP every 12 hours): mild to severe/advanced
- rejection grades (span in the group) ([2]; Group III FDP every 8 hours): moderate to severe/advanced
- rejection grades (span in the group) ([2]; Group IV FDP every 6 hours): severe/advanced
- post-storage O2 consumption [3]: 74.15±4.8 mmHg O2 /min/gm
